Data as given in patent US20220242870A1, “HETEROCYCLE-FUSED PYRIMIDINE DERIVATIVE AND USE THEREOF” (VORONOI Inc., priority 2019, published 2022).

How the values were obtained:
human FLT3-ITD enzyme = biological target: T1, human FLT3-ITD enzyme (Homo sapiens, UniProt P36888); assay: FLT3 enzyme inhibitory ability (ADP-Glo kinase assay); type: biochemical; settings: human FLT3-ITD enzyme 10 ng, ATP 10 μM, 25° C. 1 hour
T1 sequence (P36888 1-993): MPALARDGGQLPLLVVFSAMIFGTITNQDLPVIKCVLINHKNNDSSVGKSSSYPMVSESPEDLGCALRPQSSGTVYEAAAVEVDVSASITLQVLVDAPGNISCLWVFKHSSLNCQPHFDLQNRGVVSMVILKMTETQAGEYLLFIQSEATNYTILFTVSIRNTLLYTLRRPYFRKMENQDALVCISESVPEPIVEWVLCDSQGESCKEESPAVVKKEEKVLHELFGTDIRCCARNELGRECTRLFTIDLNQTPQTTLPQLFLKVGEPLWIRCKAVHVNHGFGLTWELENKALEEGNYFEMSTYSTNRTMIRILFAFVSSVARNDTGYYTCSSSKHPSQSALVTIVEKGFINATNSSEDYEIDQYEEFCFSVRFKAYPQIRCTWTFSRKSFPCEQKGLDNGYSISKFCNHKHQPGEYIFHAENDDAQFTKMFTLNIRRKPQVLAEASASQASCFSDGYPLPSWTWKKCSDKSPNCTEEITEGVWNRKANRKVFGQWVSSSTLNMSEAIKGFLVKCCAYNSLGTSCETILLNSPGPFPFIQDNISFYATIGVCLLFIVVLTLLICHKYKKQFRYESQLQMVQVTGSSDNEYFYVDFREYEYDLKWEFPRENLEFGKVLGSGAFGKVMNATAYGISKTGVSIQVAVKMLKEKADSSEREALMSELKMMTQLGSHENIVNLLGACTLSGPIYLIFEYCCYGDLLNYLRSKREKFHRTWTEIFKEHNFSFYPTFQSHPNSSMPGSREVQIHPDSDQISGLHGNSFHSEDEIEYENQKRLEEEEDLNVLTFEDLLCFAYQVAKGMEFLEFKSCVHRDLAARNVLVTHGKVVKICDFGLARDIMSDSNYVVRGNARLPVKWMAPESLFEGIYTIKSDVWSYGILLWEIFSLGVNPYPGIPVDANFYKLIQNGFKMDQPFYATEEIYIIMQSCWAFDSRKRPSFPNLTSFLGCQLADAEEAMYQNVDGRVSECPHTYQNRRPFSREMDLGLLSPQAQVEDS
In short: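 Purified human FLT3-ITD (10 ng) with 10 μM ATP and specific substrate in 40 mM Tris-HCl pH 7.4, 20 mM MgCl2, 0.5 mg/mL BSA, 50 μM DTT, 1 h at 25 °C. ADP formation read by ADP-Glo luminescence; IC50 (nM) versus solvent-treated control.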

MCF-7 cells = assay: Breast cancer cell line proliferation inhibitory activity (CellTiter-Glo 2.0); type: cell-based; settings: Homo sapiens, MCF7, 120 hours
In short: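 MCF-7 cells exposed to a 12-point, 3-fold dilution series (final 0.00005–10 μM) for 120 h at 37 °C. Viability read by CellTiter-Glo 2.0 luminescence, expressed as percent of vehicle-treated cells. GI50 (nM) derived from the curves.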

MV4-11 cells = assay: AML cell proliferation inhibitory activity (CellTiter-Glo); type: cell-based; settings: Homo sapiens, 72 hours
In short: (§1)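 RS4;11 and MV4-11 cells in RPMI-1640 with 10% FBS, seeded 24 h before treatment, then exposed 72 h to 12 three-fold dilutions (0.3 nM–50 μM final). Viability by CellTiter-Glo luminescence relative to solvent control; GI50 from triplicate experiments.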

RS4;11 cells = assay: as above; type: cell-based; settings: Homo sapiens, 72 hours
In short: as §1

human GST-HPK1 (1-346) = biological target: T2, human GST-HPK1 (1-346) (Homo sapiens, UniProt Q92918); assay: HPK1 enzyme inhibitory ability (ADP-Glo kinase assay); type: biochemical; settings: human GST-HPK1 3 ng, ATP 3 uM, 25° C. 2 hours
T2 construct: purified human GST-HPK1 (1-346, Signalchem) enzyme; purchased Signalchem
T2 sequence (Q92918 1-346): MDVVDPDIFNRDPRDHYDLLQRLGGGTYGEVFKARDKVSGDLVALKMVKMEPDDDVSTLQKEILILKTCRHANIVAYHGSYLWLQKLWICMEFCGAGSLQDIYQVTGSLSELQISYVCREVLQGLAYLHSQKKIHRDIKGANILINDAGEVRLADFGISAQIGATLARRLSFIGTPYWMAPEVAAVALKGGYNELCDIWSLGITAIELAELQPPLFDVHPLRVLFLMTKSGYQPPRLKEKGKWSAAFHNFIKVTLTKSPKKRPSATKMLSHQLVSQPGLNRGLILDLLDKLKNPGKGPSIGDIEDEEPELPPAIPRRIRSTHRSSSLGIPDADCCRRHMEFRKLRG
In short: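 Human GST-HPK1(1-346), 3 ng, reacted with 3 uM ATP and specific substrate in 40 mM Tris-HCl pH 7.4, 20 mM MgCl2, 0.5 mg/mL BSA, 50 uM DTT for 2 h at 25° C. ADP-Glo luminescence read; IC50 (nM) relative to untreated solvent control.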

IC50 (human FLT3-ITD enzyme) [nM] | GI50 (MCF-7 cells) [nM] | GI50 (MV4-11 cells) [nM] | GI50 (RS4;11 cells) [nM] | IC50 (human GST-HPK1 (1-346)) [nM] | SMILES
> 500 | > 500 | 250 to 500 | ≥ 250 | > 500 | CN1CCN(c2ccc(Nc3nc(N4N=CCC4C4CCCCC4)c4sccc4n3)cc2)CC1 (stereo not drawn) [Example 30, 4-(5-cyclohexyl-4,5-dihydro-1H-pyrazol-1-yl)-N-(4-(4-methylpiperazin-1-yl)phenyl)thieno[3,2-d]pyrimidin-2-amine]
250 to 500 | > 500 | ≥ 250 | > 500 | > 500 | CCN(CC)CCCOc1ccc(Nc2nc(N3N=CCC3c3ccccc3)c3sccc3n2)cc1 (stereo not drawn) [Example 47, N-(4-(3-(diethylamino)propoxy)phenyl)-4-(5-phenyl-4,5-dihydro-1H-pyrazol-1-yl)thieno[3,2-d]pyrimidin-2-amine]
> 500 | > 500 | > 500 | > 500 | > 500 | CN(C)CCCn1cc(Nc2nc(N3N=CCC3c3ccccc3)c3sccc3n2)cn1 (stereo not drawn) [Example 26, N-(1-(3-(dimethylamino)propyl)-1H-pyrazol-4-yl)-4-(5-phenyl-4,5-dihydro-1H-pyrazol-1-yl)thieno[3,2-d]pyrimidin-2-amine]
> 500 | > 500 | 250 to 500 | > 500 | > 500 | CN1CCC(Oc2ccc(Nc3nc(N4N=CCC4c4ccccc4)c4sccc4n3)cc2)CC1 (stereo not drawn) [Example 13, N-(4-((1-methylpiperidin-4-yl)oxy)phenyl)-4-(5-phenyl-4,5-dihydro-1H-pyrazol-1-yl)thieno[3,2-d]pyrimidin-2-amine]
250 to 500 | > 500 | 250 to 500 | > 500 | > 500 | CCN(CC)CCOc1ccc(Nc2nc(N3N=CCC3c3ccccc3)c3sccc3n2)cc1 (stereo not drawn) [Example 45, N-(4-(2-(diethylamino)ethoxy)phenyl)-4-(5-phenyl-4,5-dihydro-1H-pyrazol-1-yl)thieno[3,2-d]pyrimidin-2-amine]
≥ 250 | > 500 | ≥ 250 | > 500 | > 500 | CN(C)C1CCN(c2ccc(Nc3nc(N4N=CCC4c4ccccc4)c4sccc4n3)cc2)CC1 (stereo not drawn) [Example 38, N-(4-(4-(dimethylamino)piperidin-1-yl)phenyl)-4-(5-phenyl-4,5-dihydro-1H-pyrazol-1-yl)thieno[3,2-d]pyrimidin-2-amine]
> 500 | > 500 | ≥ 250 | > 500 | > 500 | CN(C)[C@H]1CCN(c2ccc(Nc3nc(N4N=CCC4c4ccccc4)c4sccc4n3)cc2)C1 (stereo partly drawn) [Example 44, N-(4-((S)-3-(dimethylamino)pyrrolidin-1-yl)phenyl)-4-(5-phenyl-4,5-dihydro-1H-pyrazol-1-yl)thieno[3,2-d]pyrimidin-2-amine]
≥ 250 | > 500 | ≥ 250 | > 500 | > 500 | CN1CCC(NC(=O)c2ccc(Nc3nc(N4N=CCC4c4ccccc4)c4sccc4n3)cc2)CC1 (stereo not drawn) [Example 19, N-(1-methylpiperidin-4-yl)-4-((4-(5-phenyl-4,5-dihydro-1H-pyrazol-1-yl)thieno[3,2-d]pyrimidin-2-yl)amino)benzamide]
> 500 | > 500 | > 500 | > 500 | > 500 | CCN(CC)CCCOc1c(C)cc(Nc2nc(N3N=CCC3c3ccccc3)c3sccc3n2)cc1C (stereo not drawn) [Example 48, N-(4-(3-(diethylamino)propoxy)-3,5-dimethylphenyl)-4-(5-phenyl-4,5-dihydro-1H-pyrazol-1-yl)thieno[3,2-d]pyrimidin-2-amine]
250 to 500 | > 500 | ≥ 250 | > 500 | > 500 | CCN1CCN(C2CCN(c3ccc(Nc4nc(N5N=CCC5c5ccccc5)c5sccc5n4)cc3)CC2)CC1 (stereo not drawn) [Example 37, N-(4-(4-(4-ethylpiperazin-1-yl)piperidin-1-yl)phenyl)-4-(5-phenyl-4,5-dihydro-1H-pyrazol-1-yl)thieno[3,2-d]pyrimidin-2-amine]
> 500 | > 500 | 250 to 500 | > 500 | > 500 | CN1CCC(n2cc(Nc3nc(N4N=CCC4c4ccccc4)c4sccc4n3)cn2)CC1 (stereo not drawn) [Example 29, N-(1-(1-methylpiperidin-4-yl)-1H-pyrazol-4-yl)-4-(5-phenyl-4,5-dihydro-1H-pyrazol-1-yl)thieno[3,2-d]pyrimidin-2-amine]
> 500 | > 500 | > 500 | > 500 | > 500 | CN1CCN(c2ccc(Nc3nc(N4N=CCC4c4ccc5ccccc5c4)c4sccc4n3)cc2)CC1 (stereo not drawn) [Example 31, N-(4-(4-methylpiperazin-1-yl)phenyl)-4-(5-(naphthalen-2-yl)-4,5-dihydro-1H-pyrazol-1-yl)thieno[3,2-d]pyrimidin-2-amine]
> 500 | > 500 | > 500 | > 500 | > 500 | CN1CCN(c2ccc(Nc3nc(N4N=CCC4c4ccccc4)c4sccc4n3)cn2)CC1 (stereo not drawn) [Example 5, N-(6-(4-methylpiperazin-1-yl)pyridin-3-yl)-4-(5-phenyl-4,5-dihydro-1H-pyrazol-1-yl)thieno[3,2-d]pyrimidin-2-amine]
> 500 |  | ≥ 250 | > 500 | > 500 | CN1CCN(c2ccc(Nc3nc(N4N=CCC4c4cccc(F)c4)c4sccc4n3)cc2)CC1 (stereo not drawn) [Example 36, 4-(5-(3-fluorophenyl)-4,5-dihydro-1H-pyrazol-1-yl)-N-(4-(4-methylpiperazin-1-yl)phenyl)thieno[3,2-d]pyrimidin-2-amine]
≥ 250 |  | ≥ 250 | > 500 |  | CCN1CCN(c2ccc(Nc3nc(N4N=CCC4c4ccccc4)c4sccc4n3)cc2)CC1 (stereo not drawn) [Example 39, N-(4-(4-ethylpiperazin-1-yl)phenyl)-4-(5-phenyl-4,5-dihydro-1H-pyrazol-1-yl)thieno[3,2-d]pyrimidin-2-amine]
≥ 250 |  | 250 to 500 | > 500 |  | CN1CCN(C(=O)Nc2ccc(Nc3nc(N4N=CCC4c4ccccc4)c4sccc4n3)cc2)CC1 (stereo not drawn) [Example 20, 4-methyl-N-(4-((4-(5-phenyl-4,5-dihydro-1H-pyrazol-1-yl)thieno[3,2-d]pyrimidin-2-yl)amino)phenyl)piperazine-1-carboxamide]
250 to 500 |  | ≥ 250 | > 500 |  | COc1cc(Nc2nc(N3N=CCC3c3ccccc3)c3sccc3n2)ccc1N1CCN(C)CC1 (stereo not drawn) [Example 40, N-(3-methoxy-4-(4-methylpiperazin-1-yl)phenyl)-4-(5-phenyl-4,5-dihydro-1H-pyrazol-1-yl)thieno[3,2-d]pyrimidin-2-amine]
